Among the data in patent US20200392116A1, “SUBSTITUTED HETEROCYCLES AS c-MYC TARGETING AGENTS” (NORTHWESTERN UNIVERSITY, priority 2019, published 2020) are Potency code values, retold here.

Molecules are shown by their SMILES.

This assay in a line: Potency code of Table 2 (assay not stated).

Regarding `CCc1ccc(Oc2c[nH]nc2-c2ccc(OCc3ccc(Cl)cc3)cc2O)cc1` [NUCC-0176243], the Potency code entry was “+ (>40 +)”.
For the molecule `CCc1ccc(Oc2c[nH]nc2-c2ccc(OCc3ccc(C(F)(F)F)cc3)cc2O)cc1` [NUCC-0176244], the Potency code entry is listed as “+ (>40 +)”.
Next, `CCc1ccc(Oc2c(-c3ccc(OCCc4cccc(C(F)(F)F)c4)cc3O)n[nH]c2C(F)(F)F)cc1` [NUCC-0176245]: “++ (30-40 ++)”.
As for `CCc1ccc(Oc2c[nH]nc2-c2ccc(OCc3cnn(C)c3)cc2O)cc1` [NUCC-0176246], the Potency code entry is listed as “+ (>40 +)”.
In the case of `Oc1cc(OCc2ccc(Cl)cc2)ccc1-c1n[nH]cc1Oc1ccccc1` [NUCC-0176247], the Potency code result was “+ (>40 +)”.
As for `Cc1[nH]nc(-c2ccc(OCc3cnn(C)c3)cc2O)c1Oc1ccccc1` [NUCC-0176249], the Potency code entry is on record as “+ (>40 +)”.
Turning to `Oc1cc(OCc2ccncc2)ccc1-c1n[nH]cc1Oc1ccccc1` [NUCC-0176251], the Potency code entry was “+ (>40 +)”.
On to `Cc1[nH]nc(-c2ccc(OCCc3ccc(Cl)cc3)cc2O)c1Oc1ccccc1` [NUCC-0176252], for which the Potency code entry is “+ (>40 +)”.
Next, `Cc1[nH]nc(-c2ccc(OCc3ccc(Cl)cc3)cc2O)c1Oc1ccccc1` [NUCC-0176253]: “+ (>40 +)”; `CCc1ccc(Oc2c[nH]nc2-c2ccc(OCc3ccncc3)cc2O)cc1` [NUCC-0176254]: “+ (>40 +)”; `Oc1cc(OCc2ccccc2)ccc1-c1n[nH]cc1Oc1ccccc1` [NUCC-0176255]: “+ (>40 +)”.
Regarding `CCc1ccc(Oc2c[nH]nc2-c2ccc(OCC3CCCCC3)cc2O)cc1` [NUCC-0176256], the Potency code entry was “+ (>40 +)”.
As for `CCc1ccc(Oc2c[nH]nc2-c2ccc(OCc3ccc(F)cc3)cc2O)cc1` [NUCC-0176257], the Potency code result was “+ (>40 +)”.
Next, `CCc1ccc(Oc2c[nH]nc2-c2ccc(OCCc3ccc(F)cc3)cc2O)cc1` [NUCC-0176258]: “+ (>40 +)”; `Cc1[nH]nc(-c2ccc(OCc3ccc(F)cc3)cc2O)c1Oc1ccccc1` [NUCC-0176259]: “+ (>40 +)”; `CCc1ccc(Oc2cn(C)nc2-c2ccc(OCc3ccc(Cl)cc3)cc2O)cc1` [NUCC-0176260]: “+ (>40 +)”.
Turning to `CCc1ccc(Oc2c[nH]nc2-c2ccc(OCCc3ccc(Cl)cc3)cc2O)cc1` [NUCC-0176261], the Potency code result is listed as “+ (>40 +)”.
Turning to `CCc1ccc(Oc2c(-c3ccc(OCc4ccc(Cl)cc4)cc3O)n[nH]c2CC)cc1` [NUCC-0196282], the Potency code result was “+ (>40 +)”.
Regarding `COc1ccc(-c2c(-c3ccc(OCc4ccc(Cl)cc4)cc3O)n[nH]c2C(F)(F)F)cc1OC` [NUCC-0196283], the Potency code entry was “++++ (<10 ++++)”.
On to `Cc1ccc(C)c(Oc2c[nH]nc2-c2ccc(OCc3ccc(Cl)cc3)cc2O)c1` [NUCC-0196284], for which the Potency code entry is “+ (>40 +)”.
`Cc1ccc(C)c(Oc2cn(C)nc2-c2ccc(OCc3ccc(Cl)cc3)cc2O)c1` [NUCC-0196285]: the Potency code result is “+ (>40 +)”.
The same measure for `Cc1ccc(C)c(Oc2c[nH]nc2-c2ccc(OCc3cccc(Cl)c3)cc2O)c1` [NUCC-0196286]: “+ (>40 +)”.
The same measure for `Cc1ccc(C)c(Oc2cn(C)nc2-c2ccc(OCc3cccc(Cl)c3)cc2O)c1` [NUCC-0196287]: “+ (>40 +)”; for `COc1cccc(COc2ccc(-c3n[nH]cc3Oc3cc(C)ccc3C)c(O)c2)c1` [NUCC-0196288]: “+ (>40 +)”.
As to `COc1cccc(COc2ccc(-c3nn(C)cc3Oc3cc(C)ccc3C)c(O)c2)c1` [NUCC-0196289], the Potency code entry is “+ (>40 +)”.
For the molecule `Cc1ccc(C)c(Oc2c[nH]nc2-c2ccc(OCc3ccc4ccccc4c3)cc2O)c1` [NUCC-0196290], the Potency code entry is reported as “+ (>40 +)”.
For `Cc1ccc(C)c(Oc2cn(C)nc2-c2ccc(OCc3ccc4ccccc4c3)cc2O)c1` [NUCC-0196291], the Potency code result is listed as “+ (>40 +)”.
As to `CCc1ccc(Oc2c(-c3ccc(OCc4ccc(Cl)cc4)cc3O)nn(C)c2CC)cc1` [NUCC-0196294], the Potency code result is reported as “+ (>40 +)”.
As for `CCc1ccc(Oc2c(-c3ccc(OCc4cccc(Cl)c4)cc3O)nn(C)c2C(F)(F)F)cc1` [NUCC-0196296], the Potency code entry is “+ (>40 +)”.
As to `CCc1ccc(Oc2c(-c3ccc(OCc4cccc(OC)c4)cc3O)n[nH]c2C(F)(F)F)cc1` [NUCC-0196297], the Potency code result is “+ (>40 +)”.
As for `CCc1ccc(Oc2c(-c3ccc(OCc4cccc(OC)c4)cc3O)nn(C)c2C(F)(F)F)cc1` [NUCC-0196298], the Potency code entry was “++ (30-40 ++)”.
On to `Cc1ccc(C)c(Oc2cn(C)nc2-c2ccc(OCCN3CCCCC3)cc2O)c1` [NUCC-0196299], for which the Potency code entry is recorded as “+ (>40 +)”.
Next, `Oc1cc(OCc2ccc(Cl)cc2)ccc1-c1n[nH]c(C(F)(F)F)c1Oc1cccc(F)c1` [NUCC-0196301]: “+ (>40 +)”; `Cn1nc(-c2ccc(OCc3ccc(Cl)cc3)cc2O)c(Oc2cccc(F)c2)c1C(F)(F)F` [NUCC-0196302]: “+ (>40 +)”.
`Oc1cc(OCc2ccc(Cl)cc2)ccc1-c1n[nH]cc1Oc1ccc(Cl)cc1` [NUCC-0196303]: the Potency code result is given as “+ (>40 +)”.
For `Cn1nc(-c2ccc(OCc3ccc(Cl)cc3)cc2O)c(Oc2ccccc2Cl)c1C(F)(F)F` [NUCC-0196304], the Potency code entry was “+++ (10-30 +++)”.
For `Cn1cc(Oc2ccccc2Cl)c(-c2ccc(OCc3ccc(Cl)cc3)cc2O)n1` [NUCC-0196305], the Potency code result is “++++ (<10 ++++)”.
The same measure for `COc1ccc(-c2c(-c3ccc(OCc4ccc(Cl)cc4)cc3O)noc2C(F)(F)F)cc1OC` [NUCC-0196306]: “+ (>40 +)”; for `COc1ccc(-c2c(-c3ccc(OCc4ccc(Cl)cc4)cc3O)nn(C)c2C(F)(F)F)cc1OC` [NUCC-0196311]: “+ (>40 +)”.
As for `COc1ccc(-c2c(-c3ccc(OCc4ccc(Cl)cc4)cc3O)n[nH]c2C(F)(F)F)cc1` [NUCC-0196312], the Potency code entry is “+ (>40 +)”.
For `Oc1cc(OCc2ccc(Cl)cc2)ccc1-c1cc(C(F)(F)F)[nH]n1` [NUCC-0196313], the Potency code result was “++++ (<10 ++++)”.
Regarding `Cn1nc(-c2ccc(OCc3ccc(Cl)cc3)cc2O)cc1C(F)(F)F` [NUCC-0196314.2], the Potency code result was “+ (>40 +)”.
As for `COc1ccc(-c2c(-c3ccc(OCc4ccc(Cl)cc4)cc3O)nn(C)c2C(F)(F)F)cc1` [NUCC-0196340], the Potency code entry is “++ (30-40 ++)”.
Consider `Cn1nc(-c2ccc(OCCN3CCOCC3)cc2O)c(Oc2ccccc2Cl)c1C(F)(F)F` [NUCC-0196341], for which the Potency code result was “+ (>40 +)”.
For the molecule `Oc1cc(OCc2ccc(Cl)cc2)ccc1-c1n[nH]cc1Oc1ccccc1Cl` [NUCC-0196343], the Potency code result is reported as “+ (>40 +)”.
As to `Cc1ccc(-c2c(OCc3ccc(Cl)cc3)ccc(-c3cc(C(F)(F)F)[nH]n3)c2O)cc1` [NUCC-0196344], the Potency code entry is reported as “+++ (10-30 +++)”.
Consider `Cc1ccc(-c2c[nH]nc2-c2ccc(OCc3ccc(Cl)cc3)cc2O)cc1` [NUCC-0196345], for which the Potency code result was “+ (>40 +)”.
Next, `Cc1ccc(-c2cn(C)nc2-c2ccc(OCc3ccc(Cl)cc3)cc2O)cc1` [NUCC-0196346]: “+ (>40 +)”; `Oc1c(-c2cc(C(F)(F)F)[nH]n2)ccc(OCc2ccc(Cl)cc2)c1-c1ccc(F)cc1` [NUCC-0196347]: “+ (>40 +)”.
